From patent US20140045824A1, “METHOD FOR PRODUCING COMPLEX CRYSTAL AND METHOD FOR SCREENING COMPLEX CRYSTAL” (priority 2011, published 2014)

Key:
Assay type in all cases: physicochemical
[1] = Cocrystal screening by mixing and grinding method (Comparative Example 5); design: key: A cocrystal was completely formed.; B: A mixture of a cocrystal and the host compound or guest compound was formed.; C: A cocrystal was not formed (a mixture of the host compound and the guest compound was formed); conditions: host carbamazepine, equimolar guest, mixed/ground in agate mortar
From the text: (§1) Carbamazepine and a guest compound shown in Table 4 in an equimolar amount to carbamazepine were weighed and mixed using an agate mortar. At that time, particles having a large size to an extent that they could be distinguished through visual inspection were grinded on the agate mortar. The obtained solids were subjected to powder X-ray diffraction measurement and thermal analysis.

[2] = Cocrystal screening by heating method without menthol (Comparative Example 6); design: key: A cocrystal was completely formed.; B: A mixture of a cocrystal and the host compound or guest compound was formed.; C: A cocrystal was not formed (a mixture of the host compound and the guest compound was formed); conditions: host carbamazepine, equimolar guest, no menthol, 4 hours at 80° C.
Procedure: as §1, with “10 mg of this mixed powder was weighed and put into a test tube and heated for 4 hours in an oven at 80° C., and the” for “The”

[3] = Cocrystal screening by heat melting 1-menthol (Example 2), powder X-ray diffraction and thermal analysis; design: key: A cocrystal was completely formed.; B: A mixture of a cocrystal and the host compound or guest compound was formed.; C: A cocrystal was not formed (a mixture of the host compound and the guest compound was formed); conditions: host carbamazepine, equimolar guest, 1-menthol added, 10 hours at 80° C.
Procedure: Carbamazepine and a guest compound shown in Table 4 in an equimolar amount to carbamazepine were weighed and mixed using an agate mortar. […] Thereafter, the obtained mixed powder of carbamazepine, the guest compound, and 1-menthol was heated for 10 hours in an oven at 80° C., and the obtained solids were subjected to powder X-ray diffraction measurement and thermal analysis.

[4] = Cocrystal screening by slurry method (Comparative Examples 4-1 to 4-6), powder X-ray diffraction; design: key: A cocrystal was completely formed.; B: A mixture of a cocrystal and the host compound or guest compound was formed.; C: A cocrystal was not formed (a mixture of the host compound and the guest compound was formed).; —: A residue was not obtained; conditions: host carbamazepine, slurry in tetrahydrofuran, room temperature 7 days
Procedure: (§2) 3 mg (0.0127 mmoles) of carbamazepine and a guest compound shown in Table 4 in an equimolar amount (0.0127 mmoles) to carbamazepine were weighed and put into a glass container, to which was then added 60 μL of water. These were shaken at room temperature for 7 days, and the obtained residues were subjected to powder X-ray diffraction measurement. 3 mg (0.0127 mmoles) of carbamazepine and a guest compound shown in Table 4 in an equimolar amount (0.0127 mmoles) to carbamazepine were weighed and put into a glass container, to which was then added 60 μL of ethanol. These were shaken at room temperature for 7 days, and the obtained residues were subjected to powder X-ray diffraction measurement. 3 mg (0.0127 mmoles) of carbamazepine and a guest compound shown in Table 4 in an equimolar amount (0.0127 mmoles) to carbamazepine were weighed and put into a glass container, to which was then added 60 μL of tetrahydrofuran. These were shaken at room temperature for 7 days, and the obtained residues were subjected to powder X-ray diffraction measurement. 3 mg (0.0127 mmoles) of carbamazepine and a guest compound shown in Table 4 in an equimolar amount (0.0127 mmoles) to carbamazepine were weighed and put into a glass container, to which was then added 60 μL of toluene. These were shaken at room temperature for 7 days, and the obtained residues were subjected to powder X-ray diffraction measurement. 3 mg (0.0127 mmoles) of carbamazepine and a guest compound shown in Table 4 in an equimolar amount (0.0127 mmoles) to carbamazepine were weighed and put into a glass container, to which was then added 60 μL of ethyl acetate. These were shaken at room temperature for 7 days, and the obtained residues were subjected to powder X-ray diffraction measurement. 3 mg (0.0127 mmoles) of carbamazepine and a guest compound shown in Table 4 in an equimolar amount (0.0127 mmoles) to carbamazepine were weighed and put into a glass container, to which was then added 60 μL of acetone. These were shaken at room temperature for 7 days, and the obtained residues were subjected to powder X-ray diffraction measurement.

[5] = as above; design: key: A cocrystal was completely formed.; B: A mixture of a cocrystal and the host compound or guest compound was formed.; C: A cocrystal was not formed (a mixture of the host compound and the guest compound was formed); conditions: host carbamazepine
Procedure: as §2

For `O=C(O)CC(=O)O` [Malonic acid], the “Cocrystal formation, Comparative Example 5” value [1] was “C”, the “Cocrystal formation, Comparative Example 6” value [2] was “B” and the “Cocrystal formation, Example 2” value [3] was “A”. For the same compound, the “Cocrystal formation, Comparative Example 4-3” value [4] was “—”, the “Cocrystal formation, Comparative Example 4-6” value ([5]; slurry in acetone, room temperature 7 days) was “C” and the “Cocrystal formation, Comparative Example 4-2” value ([5]; slurry in ethanol, room temperature 7 days) was “C”. For the same compound, the “Cocrystal formation, Comparative Example 4-5” value ([5]; slurry in ethyl acetate, room temperature 7 days) was “A”, the “Cocrystal formation, Comparative Example 4-4” value ([5]; slurry in toluene, room temperature 7 days) was “B” and the “Cocrystal formation, Comparative Example 4-1” value ([5]; slurry in water, room temperature 7 days) was “C”. The “Cocrystal formation, Comparative Example 4*” value ([5]; slurry summary: A if a cocrystal was formed in any one of Comparative Examples 4-1 to 4-6) was “A”.
